# Data taken from ChEMBL document CHEMBL3244025, “Carbocyclic arabinosyladenine, an adenosine deaminase resistant antiviral agent” (J Med Chem, 1977).
# What was measured:
# [1] = Cytotoxicity against human Hep2 cells; assay type: cell-based; conditions: hep-2
# [2] = Stability of the compound assessed as calf intestinal adenosine deaminase type 3-mediated deamination; assay type: ADME, Bos taurus; conditions: cattle
# [3] = tested on: Human alphaherpesvirus 1; assay: Antiviral activity against Herpes simplex virus type 1 HF infected in human Hep2 cells assessed as inhibition of virus-induced cytopathogenic effect; assay type: functional, HEp-2
# [4] = tested on: P388; assay: Cytotoxicity against mouse P388 cells after 72 hrs by hemocytometric analysis; assay type: functional
# [5] = Stability of the compound assessed as calf intestinal adenosine deaminase type 3-mediated deamination in presence of C-ara-A; assay type: ADME, Bos taurus; conditions: cattle
Compound,Activity [1],Stability [2],MED50 [3],LD50 [4],Stability [5]
Nc1ncnc2c1ncn2[C@@H]1C[C@H](CO)[C@@H](O)[C@@H]1O (racemic),9 µg/mL,Stable,2.8 µg/mL,1 ×10⁻⁵ M,–
Nc1ncnc2c1ncn2[C@@H]1O[C@H](CO)[C@@H](O)[C@H]1O [ADENOSINE],–,–,–,–,Unstable
Nc1ncnc2c1ncn2[C@@H]1O[C@H](CO)[C@@H](O)[C@@H]1O [VIDARABINE],–,Unstable,–,1 ×10⁻⁵ M,Unstable
